Key:
[1] = system: angiogenesis induced by FGF-2 adsorbed on a Matrigel pellet; experiment: Matrigel test, in vivo antiangiogenetic activity (hemoglobin content in pellets); parameters: species or system C57BL6N mice; conditions: after 7 days
Description: The antiangiogenic activity was evaluated by means of the Matrigel test, in which angiogenesis is induced by FGF-2 ([…]) adsorbed on a Matrigel pellet (12.5 mg/ml, 0.5 mL) injected subcutaneously in C57BL6N mice.
The tested compound was administered through the oral route daily or through the intraperitoneal route on alternate days, at the shown concentration. After 7 days, the angiogenic response was evaluated by measuring the hemoglobin content in the pellets, according to the procedure by Drabkin.

13-[(2R, 3S)-3-iso-butyl-2-hydroxy-3-tert-butoxycarbonylamino-propanoyl]-C-seco-10-dehydro-10-deacetyl-7,9-bis-acetyl-baccatine III [Example II]
% (change of hemoglobin content) ([1]; 90 mg/kg i.p. on alternate days): −50%
Hemoglobin ([1]; 90 mg/kg i.p. on alternate days, FGF-2 Matrigel pellet s.c.): 0.015 ± 0.001 g/dL
% (change of hemoglobin content) ([1]; 150 mg/kg p.o. daily): −70%
Hemoglobin ([1]; 150 mg/kg p.o. daily, FGF-2 Matrigel pellet s.c.): 0.009 ± 0.001 g/dL

13-[(2R, 3S)-3-isobutyl-2-hydroxy-3-tert-butoxycarbonylamino-propanoyl]-C-seco-10-dehydro-10-deacetyl-7,9-bis-acetyl-baccatine III 1,14-carbonate [Example VII]
% (change of hemoglobin content) ([1]; 50 mg/kg i.p. on alternate days): −40%
Hemoglobin ([1]; 50 mg/kg i.p. on alternate days, FGF-2 Matrigel pellet s.c.): 0.014 g/dL
% (change of hemoglobin content) ([1]; 100 mg/kg p.o. daily): −70%
Hemoglobin ([1]; 100 mg/kg p.o. daily, FGF-2 Matrigel pellet s.c.): 0.009 g/dL

CC(=O)O[C@H]1C(=O)[C@@]2(C)[C@H]([C@H](OC(=O)c3ccccc3)[C@]3(O)C[C@H](OC(=O)[C@H](O)[C@@H](NC(=O)c4ccccc4)c4ccccc4)C(C)=C1C3(C)C)[C@]1(OC(C)=O)CO[C@@H]1C[C@@H]2O [Paclitaxel]
neuro-toxicity (tremors) (mouse, in vivo): induces tremors
weight loss (nude mouse with human tumor cells, dose effective in inhibiting tumor growth (same antitumor activity)): up to 20%

FGF-2: growth factor adsorbed on the Matrigel pellet to induce angiogenesis [reference compound]
Hemoglobin ([1]; FGF-2 alone (150 mg/pellet) on Matrigel pellet, no test compound): 0.03 ± 0.001 g/dL
% (change of hemoglobin content) ([1]; FGF-2 alone versus control): +300%

From USRE39723E1, “Semi-synthetic taxanes with antitumor and antiangiogenetic activities” (Indena S.p.A., priority 2000, dated 2007)
